Measurements as given in patent US10030047B2 (Hoffmann-La Roche Inc., priority 2015, dated 2018).
≈ marks a conversion by molar mass, not a printed value.

tested on: A. baumannii strain ATCC19606; assay: Minimum inhibitory concentration (MIC) determination, microbroth dilution (CLSI); assay type: cell-based; settings: Acinetobacter baumannii, ATCC19606, 20 h, read-out: ATCC19606 MIC
Description: The in vitro antimicrobial activity of the compounds was determined through microbroth minimum inhibitory concentration (MIC) methodology performed according to the Clinical and Laboratory Standard Institute guidelines (CLSI—M07-A9 Jan. 2012. Methods for Dilution Antimicrobial Susceptibility Tests for Bacteria That Grow Aerobically; Approved Standard—Ninth Edition, Clinical and Laboratory Standards Institute, Wayne/PA, US and the CLSI—M100-S24 Jan. 2014. Performance Standards for Antimicrobial Susceptibility Testing; Approved Standard—Fourth Informational Supplement, Clinical and Laboratory Standards Institute, Wayne/PA, US).
The compound stock solution was freshly prepared at 10× the required top concentration for the MIC determination, i.e. at 1280 mg/L, by reconstitution of the dry compound in 50:50 water:DMSO.
Polystyrene non-treated 96 wells microtiter plates were used for preparing panel containing compound serial twofold diluted at two times the final testing concentration (e.g. range from 64 to 0.06 μg/ml) in cation adjusted Mueller Hinton broth medium (CAMHB).
Inoculum was prepared by the “direct colony suspension method”. Colonies of A. baumannii ATCC19606 or clinical isolates were suspended in saline solution and adjusted to 0.5 McFarland, diluted 100 times in CAMHB broth and 50 μl added to each well (final concentration of cells ˜5×10^(5) CFU/ml and Final volume/well of 100 μl). Microtiter plates were sealed and incubated at 35±2° C.
MICs values were read after 20 hours of incubation and recorded as the lowest concentration of the antimicrobial that inhibits more or equal to 80% of growth of the organism as detected by the unaided eye and using a microtiter plate optical density reader (OD 600 nm).
Tables 2, 3, 4 and 5 provide the minimum inhibitory concentration (MIC) in microgram per milliliter of the compounds of present invention obtained against the A. baumannii strain ATCC19606 (Tables 2, 3, 4 and 5).

SMILES | MIC
CN1C(=O)[C@H](CCCCN)NC(=O)[C@H](CCCN)NCc2cccnc2Sc2c(Cl)ccc(Cl)c2CNC(=O)[C@@H]1Cc1c[nH]c2ccccc12 [Example 38, (11S,14S,17S)-14-(4-Amino-butyl)-11-(3-amino-propyl)-22,25-dichloro-17-(1H-indol-3-ylmethyl)-16-methyl-2-thia-4,10,13,16,19-pentaaza-tricyclo[19.4.0.0*3,8*]pentacosa-1(25),3(8),4,6,21,23-hexaene-12,15,18-trione] | 0.5 mg/L (≈ 0.676 µM)

same assay, conditions: Acinetobacter baumannii; A. baumannii ATCC19606; CAMHB; read after 20 hours; >=80% growth inhibition; read-out: ATCC19606 MIC

SMILES | MIC
CN1C(=O)[C@H](CCCCN)NC(=O)[C@H](CCCN)NCc2cccnc2Sc2ccc(Cl)c(Cl)c2CNC(=O)[C@@H]1Cc1c[nH]c2ccccc12 [Example 37, (11S,14S,17S)-14-(4-Amino-butyl)-11-(3-amino-propyl)-22,23-dichloro-17-(1H-indol-3-ylmethyl)-16-methyl-2-thia-4,10,13,16,19-pentaaza-tricyclo[19.4.0.0*3,8*]pentacosa-1(25),3,5,7,21,23-hexaene-12,15,18-trione] | 2 mg/L (≈ 2.7 µM)
CN1C(=O)[C@H](CCCCN)NC(=O)[C@H](CCCN)NCc2cccnc2Sc2c(Cl)ccc(C(F)(F)F)c2CNC(=O)[C@@H]1Cc1c[nH]c2ccccc12 [Example 39, (11S,14S,17S)-14-(4-Amino-butyl)-11-(3-amino-propyl)-25-chloro-17-(1H-indol-3-ylmethyl)-16-methyl-22-trifluoromethyl-2-thia-4,10,13,16,19-pentaaza-tricyclo[19.4.0.0*3,8*]pentacosa-1(25),3,5,7,21,23-hexaene-12,15,18-trione] | 0.5 mg/L (≈ 0.647 µM)
CN1C(=O)[C@H](CCCCN)NC(=O)[C@H](CCCN)NCc2cccnc2Sc2c(F)ccc(F)c2CNC(=O)[C@@H]1Cc1c[nH]c2ccccc12 [Example 40, (11S,14S,17S)-14-(4-Amino-butyl)-1-(3-amino-propyl)-22,25-difluoro-17-(1H-indol-3-ylmethyl)-16-methyl-2-thia-4,10,13,16,19-pentaaza-tricyclo[19.4.0.0*3,8*]pentacosa-1(25),3(8),4,6,21,23-hexaene-12,15,18-trione] | 0.5 mg/L (≈ 0.707 µM)
Cc1cc(Cl)c2c(c1)CNC(=O)[C@H](Cc1c[nH]c3ccccc13)N(C)C(=O)[C@H](CCCCN)NC(=O)[C@H](CCCN)NCc1ccccc1S2 [Example 41, (12S,15S,18S)-15-(4-Amino-butyl)-18-(3-amino-propyl)-4-chloro-12-(1H-indol-3-ylmethyl)-6,13-dimethyl-2-thia-10,13,16,19-tetraaza-tricyclo[19.4.0.0*3,8*]pentacosa-1(25),3,5,7,21,23-hexaene-11,14,17-trione] | 0.5 mg/L (≈ 0.696 µM)
CN1C(=O)[C@H](CCCCN)NC(=O)[C@H](CCCN)NCc2ccccc2Sc2c(Cl)cc(Cl)cc2CNC(=O)[C@@H]1Cc1c[nH]c2ccccc12 [Example 42, (12S,15S,18S)-15-(4-Amino-butyl)-18-(3-amino-propyl)-4,6-dichloro-12-(1H-indol-3-ylmethyl)-13-methyl-2-thia-10,13,16,19-tetraaza-tricyclo[19.4.0.0*3,8*]pentacosa-1(25),3,5,7,21,23-hexaene-11,14,17-trione] | 1 mg/L (≈ 1.35 µM)
CCN1C(=O)[C@H](CCCCN)NC(=O)[C@H](CCCN)NCc2ccccc2Sc2ccc(Cl)cc2CNC(=O)[C@@H]1Cc1c[nH]c2ccccc12 [Example 43, (12S,15S,18S)-15-(4-Amino-butyl)-18-(3-amino-propyl)-6-chloro-13-ethyl-12-(1H-indol-3-ylmethyl)-2-thia-10,13,16,19-tetraaza-tricyclo[19.4.0.0*3,8*]pentacosa-1(21),3,5,7,22,24-hexaene-11,14,17-trione] | 1 mg/L (≈ 1.39 µM)
CCN1C(=O)[C@H](CCCCN)NC(=O)[C@H](CCCN)NCc2ccccc2Sc2ccc(OC)cc2CNC(=O)[C@@H]1Cc1c[nH]c2ccccc12 [Example 44, (12S,15S,18S)-15-(4-Amino-butyl)-18-(3-amino-propyl)-13-ethyl-12-(1H-indol-3-ylmethyl)-6-methoxy-2-thia-10,13,16,19-tetraaza-tricyclo[19.4.0.0*3,8*]pentacosa-1(21),3,5,7,22,24-hexaene-11,14,17-trione] | 0.5 mg/L (≈ 0.7 µM)
CCN1C(=O)[C@H](CCCCN)NC(=O)[C@H](CCCN)NCc2ccccc2Sc2c(Cl)cccc2CNC(=O)[C@@H]1Cc1c[nH]c2ccccc12 [Example 45, (12S,15S,18S)-15-(4-Amino-butyl)-18-(3-amino-propyl)-4-chloro-13-ethyl-12-(1H-indol-3-ylmethyl)-2-thia-10,13,16,19-tetraaza-tricyclo[19.4.0.0*3,8*]pentacosa-1(21),3,5,7,22,24-hexaene-11,14,17-trione] | 0.5 mg/L (≈ 0.696 µM)
CCN1C(=O)[C@H](CCCCN)NC(=O)[C@H](CCCN)NCc2ccccc2Sc2c(C)cccc2CNC(=O)[C@@H]1Cc1c[nH]c2ccccc12 [Example 46, (12S,15S,18S)-15-(4-Amino-butyl)-18-(3-amino-propyl)-13-ethyl-12-(1H-indol-3-ylmethyl)-4-methyl-2-thia-10,13,16,19-tetraaza-tricyclo[19.4.0.0*3,8*]pentacosa-1(21),3,5,7,22,24-hexaene-11,14,17-trione] | 1 mg/L (≈ 1.43 µM)
CN1C(=O)[C@H](CCCCN)NC(=O)[C@H](CCCN)NCc2ccccc2Sc2ccc(F)cc2CNC(=O)[C@@H]1Cc1c[nH]c2ccccc12 [Example 47, (12S,15S,18S)-15-(4-Amino-butyl)-18-(3-amino-propyl)-6-fluoro-12-(1H-indol-3-ylmethyl)-13-methyl-2-thia-10,13,16,19-tetraaza-tricyclo[19.4.0.0*3,8*]pentacosa-1(25),3,5,7,21,23-hexaene-11,14,17-trione] | 4 mg/L (≈ 5.81 µM)
CNCCCC[C@@H]1NCc2ccccc2Sc2c(Cl)cccc2CNC(=O)[C@H](Cc2c[nH]c3ccccc23)N(C)C(=O)[C@H](CCCCN)NC1=O [Example 48, (12S,15S,18S)-15-(4-Amino-butyl)-4-chloro-12-(1H-indol-3-ylmethyl)-13-methyl-18-(4-methylamino-butyl)-2-thia-10,13,16,19-tetraaza-tricyclo[19.4.0.0*3,8*]pentacosa-1(21),3,5,7,22,24-hexaene-11,14,17-trione] | 2 mg/L (≈ 2.73 µM)
COc1cc(Cl)c2c(c1)CNC(=O)[C@H](Cc1c[nH]c3ccccc13)N(C)C(=O)[C@H](CCCCN)NC(=O)[C@H](CCCN)NCc1ccccc1S2 [Example 49, (12S,15S,18S)-15-(4-Amino-butyl)-18-(3-amino-propyl)-4-chloro-12-(1H-indol-3-ylmethyl)-6-methoxy-13-methyl-2-thia-10,13,16,19-tetraaza-tricyclo[19.4.0.0*3,8*]pentacosa-1(25),3,5,7,21,23-hexaene-11,14,17-trione] | 0.5 mg/L (≈ 0.681 µM)
COc1cc(C)c2c(c1)CNC(=O)[C@H](Cc1c[nH]c3ccccc13)N(C)C(=O)[C@H](CCCCN)NC(=O)[C@H](CCCN)NCc1ccccc1S2 [Example 50, (12S,15S,18S)-15-(4-Amino-butyl)-18-(3-amino-propyl)-12-(1H-indol-3-ylmethyl)-6-methoxy-4,13-dimethyl-2-thia-10,13,16,19-tetraaza-tricyclo[19.4.0.0*3,8*]pentacosa-1(25),3,5,7,21,23-hexaene-11,14,17-trione] | 0.25 mg/L (≈ 0.35 µM)
Cc1cccc2c1Sc1ncccc1CN[C@@H](CCCN)C(=O)N[C@@H](CCCCN)C(=O)N(C)[C@@H](Cc1c[nH]c3ccccc13)C(=O)NC2 [Example 51, (11S,14S,17S)-14-(4-Amino-butyl)-11-(3-amino-propyl)-17-(1H-indol-3-ylmethyl)-16,25-dimethyl-2-thia-4,10,13,16,19-pentaaza-tricyclo[19.4.0.0*3,8*]pentacosa-1(25),3,5,7,21,23-hexaene-12,15,18-trione] | 4 mg/L (≈ 5.84 µM)
CN1C(=O)[C@H](CCCCN)NC(=O)[C@H](CCCN)NCc2cccnc2Sc2ccc(Cl)c(F)c2CNC(=O)[C@@H]1Cc1c[nH]c2ccccc12 [Example 52, (11S,14S,17S)-14-(4-Amino-butyl)-11-(3-amino-propyl)-23-chloro-22-fluoro-17-(1H-indol-3-ylmethyl)-16-methyl-2-thia-4,10,13,16,19-pentaaza-tricyclo[19.4.0.0*3,8*]pentacosa-1(25),3(8),4,6,21,23-hexaene-12,15,18-trione] | 0.5 mg/L (≈ 0.691 µM)
CN1C(=O)[C@H](CCCCN)NC(=O)[C@H](CCCN)NCc2cccnc2Sc2cccc(C(F)(F)F)c2CNC(=O)[C@@H]1Cc1c[nH]c2ccccc12 [Example 53, (11S,14S,17S)-14-(4-Amino-butyl)-11-(3-amino-propyl)-17-(1H-indol-3-ylmethyl)-16-methyl-22-trifluoromethyl-2-thia-4,10,13,16,19-pentaaza-tricyclo[19.4.0.0*3,8*]pentacosa-1(25),3,5,7,21,23-hexaene-12,15,18-trione] | 1 mg/L (≈ 1.35 µM)
